Publication PMC7727793, “Aggregation Behavior, Antibacterial Activity and Biocompatibility of Catanionic Assemblies Based on Amino Acid-Derived Surfactants” (International Journal of Molecular Sciences, 2020)

Assays:
A431 cell line = assay: NRU cell viability assay; assay type: cell-based; details: Homo sapiens, A-431, 24 h
Method: (§1) The murine Swiss albino fibroblast (3T3), the squamous carcinoma (A431), the immortal human keratinocyte (HaCaT) and the human epithelial carcinoma (HeLa) cell lines were obtained from Celltec UB. Cells were grown in Dulbecco’s Modified Eagle’s Medium (DMEM) (4.5 g/L glucose) supplemented with 10% (v/v) fetal bovine serum (FBS), 1% (v/v) L-glutamine solution (200 mM) and 1% (v/v) penicillin-streptomycin solution (10,000 U/mL penicillin and 10 mg/mL streptomycin) at 37 °C and 5% CO2 (CO2 Incubator Nuaire, Plymouth, MN, USA). All the biological materials were purchased from Lonza (Verviers, Belgium). Cells were cultured in 75 cm^2 culture flasks (TPP, Trasadingen, Switzerland) and were routinely split using trypsin-EDTA (ethylenediaminetetraacetate) solution (170,000 U/L trypsin and 0.2 g/L EDTA) (Lonza, Verviers, Belgium) when cells are approximately 80% confluent. 3T3 and HaCaT cells (1 × 10^5 cells/ mL) and HeLa and A431 cells (5 × 10^4 cells/mL) were grown at the defined densities into the central 60 wells of a 96-well plate. Cells were incubated for 24 h under 5% CO2 at 37 °C. […] Agitation, determination of the absorbance of the extracted solution and effect of each treatment in comparison with control cells were analogous of those described in the case of the MTT method.

HeLa cell line = assay: NRU cell viability assay; assay type: cell-based; details: Homo sapiens, 24 h
Method: as §1

[1] = assay type: physicochemical
Method: To check whether there was a pKa shift, we titrated the surfactant at a concentration below the CMC. The titration curve is shown in Supplementary Figure S1, where 10 mL of 1.5 mM surfactant was titrated with 3 mM NaOH.
The titration was followed using a glass electrode Orion coupled with an Orion Versastar reader (Thermo Scientific). […] 16% carbonation was determined. using Equation (1), which is derived making use of the charge and mass balances together with the acid constants of H2CO3, pK1CO2 = 6.35, pK2CO2 = 10.25 and water dissociation constant pKw = 14. (1) V = −V0Ca10^pKa−pH/1+10^pKa−pH−V0Ca+V0(1/10^pH−10^pH+pKw)/cb(1−α(1−1/1+10^pH+pK1CO2+10^2pH+pK2CO2))+(1/10^pH−10^pH+pKw) where V0 is the titrated solution initial volume, L is concentration, pKa is the searched acid constant, pkw is the minus logarithm of the water dissociation constant, Cb is the titrant concentration, α is the fraction of carbonated titrant, pK1CO2 is the first dissociation constant of CO2 and pK2CO2 is the second dissociation constant of CO2.

Row | Compound | IC50 (A431 cell line) [µM] | IC50 (HeLa cell line) [µM] | pKa [1] | pKa calculated from the concentration and the initial solution pH [1] | pKa shift versus literature value for the histidine secondary amine [1]
1 | CCCCCCCCCCCCCC(=O)O [Sodium myristate, sodium myristate] | > 50 | > 50 | – | – | –
2 | N(π),N(τ)-bis(methyl)-L-Histidine tetradecyl amide [DMHNHC14] | – | – | 5.7-5.9 | 5.4 | about 3.3 units
